Laboratory results from patent US5366726A (priority 1992, dated 1994).

Tests used:
Pneumocystis carinii [1] = conditions: in vivo; cited from earlier work
[2] = TMP-SMX oral or parenteral; pentamidine isethionate parenteral; cited from earlier work
Pneumocystis carinii [3] = conditions: human, in vivo; cited from earlier work
Pneumocystis carinii [4] = test: Example 8: randomized clinical trial, prevention of PCP; assay type: in vivo, human; conditions: AZT use

In the case of `NCCC[C@](N)(C(=O)O)C(F)F` [DFMO, α-difluoromethylornithine], the “efficacy in rat PCP model” value (Pneumocystis carinii [1]) is listed as “not efficacious”.
In the case of `N=C(N)c1ccc(OCCCCCOc2ccc(C(=N)N)cc2)cc1` [pentamidine isethionate], the “patients developing severe toxicity requiring discontinuation” value [2] is given as “approximately 50%”.
For `COc1cc(NCc2ccc3nc(N)nc(N)c3c2C)cc(OC)c1OC` [trimetrexate], the “relapse rates within one month” value (Pneumocystis carinii [3]) is given as “high”.
With `Cc1cn([C@H]2C[C@H](N=[N+]=[N-])[C@@H](CO)O2)c(=O)[nH]c1=O` [zidovudine] the “independent reduction of PCP risk, Cox models” value (Pneumocystis carinii [4]) was “two-fold”.
